Data set [1] concerns patients with Dravet syndrome. As to the kind of experiment: Study 1 (ZX008-1501/1502), Phase 3 double-blind placebo-controlled: efficacy on seizures. In kind it is in vivo, human. The conditions noted are these: 0.8 mg/kg/day; end of the T+M Period. Here is the method: The first 119 subjects to be randomized in both identical studies combined were analyzed and reported as Study 1 (FIG. 1), covered by a Statistical Analysis Plan (SAP).
Primary and key secondary endpoints in the Study 1 SAP were pre-determined. All patients were treated twice per day over a period of 14 weeks using an oral syringe to administer the formulation. The treatment period included a two-week titration period and a 12-week maintenance period.
Patients were titrated to their target dose over two weeks, and then remained at that fixed dose for 12 weeks. The mean baseline convulsive seizure frequency across the study groups was approximately 40 seizures per month. 110 (92%) patients completed the study (85% 0.8 mg/kg/day; 100% 0.2 mg/kg/day; 93% placebo).
The proportion of patients who achieved ≥75% seizure reductions, a secondary (non-key) efficacy measure, is also presented.
The mean number of convulsive seizure free days, defined as a day for which diary data are available and no convulsive seizures have been reported, was determined for each treatment group during the Baseline and T+M Periods. […]

The test system of data set [2] is patients with Dravet syndrome. The following applies: cited from earlier work.

The source of these data is patent US20200276136A1, “METHOD OF TREATING SELECTED PATIENT POPULATION EXPERIENCING DRAVET SYNDROME” (ZOGENIX INTERNATIONAL LIMITED, priority 2017, published 2020).

Consider `CCNC(C)Cc1cccc(C(F)(F)F)c1` (racemic) [Fenfluramine, (RS)—N-ethyl-1-[3-(trifluoromethyl)phenyl]propan-2-amine], for which the “reduction from Baseline in non-convulsive seizure frequency (all types)” value in data set [1] was found to be 59.1%. For the same compound, the “>50% Reduction in Seizures (responders)” value in data set [2] (Fenfluramine and Valproate, average 0.34 mg/kg/day for between 1 and 22 years) was 75%. Also, in data set [2] (long-term treatment), the “heart valve defects monitored by echocardiography” value was “No clinically relevant defects were identified” and the “types of seizures reduced” value is recorded as “effectively reduced the incidence of all types of seizures”.
